According to patent US20220378801A1, “NOVEL COMPOUNDS” (AC Immune SA, priority 2019, published 2022):
pIC50: −log10 of the molar value.

Tests used:
Assay type in all cases: cell-based
[1] = target: T1, NLRP3 inflammasome (Homo sapiens, UniProt Q96P20); experiment: NLRP3 inflammasome activation assay, IL-1 beta release, human monocyte-like cells, MSU stimulation; parameters: endogenous in cells; details: PMA-differentiated, LPS-primed human monocyte-like cells; MSU 150 μg/ml 3 h; IL-1β by AlphaLISA
T1 sequence (Q96P20 whole entry): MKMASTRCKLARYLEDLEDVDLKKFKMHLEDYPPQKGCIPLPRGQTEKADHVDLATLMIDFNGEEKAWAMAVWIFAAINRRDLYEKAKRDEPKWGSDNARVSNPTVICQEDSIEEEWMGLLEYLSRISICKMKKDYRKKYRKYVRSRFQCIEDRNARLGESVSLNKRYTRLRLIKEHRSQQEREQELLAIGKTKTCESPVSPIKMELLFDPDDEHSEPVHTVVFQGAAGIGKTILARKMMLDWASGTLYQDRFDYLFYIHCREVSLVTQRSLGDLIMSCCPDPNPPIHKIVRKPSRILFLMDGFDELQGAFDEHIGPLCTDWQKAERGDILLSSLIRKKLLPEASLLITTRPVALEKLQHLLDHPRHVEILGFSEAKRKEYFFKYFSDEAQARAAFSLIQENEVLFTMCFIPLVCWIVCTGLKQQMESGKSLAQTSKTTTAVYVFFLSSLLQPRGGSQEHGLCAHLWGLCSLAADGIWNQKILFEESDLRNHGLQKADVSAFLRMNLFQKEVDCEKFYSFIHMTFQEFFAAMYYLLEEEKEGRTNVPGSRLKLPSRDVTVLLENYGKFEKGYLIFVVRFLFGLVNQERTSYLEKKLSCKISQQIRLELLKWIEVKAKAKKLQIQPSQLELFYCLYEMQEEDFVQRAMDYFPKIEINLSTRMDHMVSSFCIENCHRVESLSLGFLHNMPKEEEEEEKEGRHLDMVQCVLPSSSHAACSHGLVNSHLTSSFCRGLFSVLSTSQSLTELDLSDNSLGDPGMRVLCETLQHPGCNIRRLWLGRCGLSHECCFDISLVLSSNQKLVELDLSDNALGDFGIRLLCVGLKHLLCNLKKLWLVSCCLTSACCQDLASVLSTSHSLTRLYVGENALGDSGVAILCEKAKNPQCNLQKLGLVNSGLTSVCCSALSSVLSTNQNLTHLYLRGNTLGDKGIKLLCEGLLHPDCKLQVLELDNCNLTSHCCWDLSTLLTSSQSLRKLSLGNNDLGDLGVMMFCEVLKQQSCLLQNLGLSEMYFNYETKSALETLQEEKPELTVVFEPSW
Description: (§1) The following assays can be used to determine the inhibitory activity of test compounds on the NLRP3 inflammasome using common stimuli nigericin (Invivogen) or monosodium urate crystals (MSU)(Invivogen).
(§2) Human monocyte-like cells are cultured in RPM11640 Glutamax medium supplemented with 10% heat inactivated FCS and 50 U/ml penicillin-streptomycin (Life Technologies). HMDM (Human Monocyte Derived Macrophage) are isolated from human blood with leucosep tubes and classical monocyte isolation kit from Miltenyi based on negative selection.
(§3) NLRP3 inflammasome activation assays Human monocyte-like cells are seeded at 75000 per well in a 96 well plate and differentiated overnight into macrophages with 10 ng/ml PMA (Phorbol Myristate Acetate). The following day, medium containing 10 ng/ml LPS (lipopolysaccharide) is added. After 3 h of LPS priming, concentrations of test compound in the range from 100 μM to 6 nM are added 30 min prior to NLRP3 inflammasome stimulation with Nigericin 3.75 μM or MSU 150 μg/ml for 3 h.
(§4) For IL-1β quantification, supernatants are analyzed using AlphaLISA kits according to the manufacturer's instructions (Perkin Elmer AlphaLISA AL220F).
(§5) IC50 (concentration corresponding to 50% inhibition) were determined using GraphPad Prism 8.

[2] = target: T1, NLRP3 inflammasome; experiment: NLRP3 inflammasome activation assay, IL-1 beta release, human monocyte-like cells, Nigericin stimulation; parameters: endogenous in cells; details: PMA-differentiated, LPS-primed human monocyte-like cells; Nigericin 3.75 μM 3 h; IL-1β by AlphaLISA
Description: as §1, §2, §3, §4, §5

[3] = target: T1, NLRP3 inflammasome; experiment: NLRP3 inflammasome activation assay, IL-1 beta release, HMDM cells, MSU stimulation; details: LPS-primed primary human monocyte-derived macrophages; MSU 150 μg/ml 3 h; IL-1β by AlphaLISA
Description: as §1, §2
(§6) Primary human monocyte-derived macrophages (HMDM) are seeded at 30000 per well in a 96 well plate and differentiated into macrophages with 10 ng/ml Human M-CSF (Macrophage Colony Stimulating Factor). At DIV 8 (Day in vitro) medium containing 10 ng/ml LPS is added. After 3 h of LPS priming, concentrations of test compound in the range from […] are added 30 min prior to NLRP3 inflammasome stimulation with Nigericin 2.5 μM or MSU 150 μg/ml for 3 h.
as §4, §5

[4] = target: T1, NLRP3 inflammasome; experiment: NLRP3 inflammasome activation assay, IL-1 beta release, HMDM cells, Nigericin stimulation; details: LPS-primed primary human monocyte-derived macrophages; Nigericin 2.5 μM 3 h; IL-1β by AlphaLISA
Description: as §1, §2, §6, §4, §5

SMILES: O=C(Nc1c2c(cc3c1CCC3)CCC2)NS1(=O)=NC(=O)c2cc(Br)ccc21 (single isomer, unassigned) [Example 59]
- pIC50 [1]: 5.00 to 6.00
- pIC50 [2]: 5.00 to 6.00

SMILES: O=C(Nc1c2c(c(F)c3c1CCC3)CCC2)NS1(=O)=NC(=O)c2sccc21 (single isomer, unassigned) [Example 54]
- pIC50 [3]: 5.00 to 6.00
- pIC50 [1]: > 6.00
- pIC50 [2]: 5.00 to 6.00

SMILES: O=C(Nc1c2c(c(F)c3c1CCC3)CCC2)NS1(=O)=NC(=O)c2sccc21 (stereo not drawn) [Example 19]
- pIC50 [3]: > 6.00
- pIC50 [4]: > 6.00
- pIC50 [1]: > 6.00
- pIC50 [2]: > 6.00

SMILES: N#Cc1ccc2c(c1)C(=O)N=S2(=O)NC(=O)Nc1c2c(cc3c1CCC3)CCC2 (stereo not drawn) [Example 10]
- pIC50 [1]: > 6.00
- pIC50 [2]: 5.00 to 6.00

SMILES: O=C(Nc1c2c(cc3c1CCC3)CCC2)NS1(=O)=NC(=O)c2cc(Br)ccc21 (stereo not drawn) [Example 23]
- pIC50 [1]: > 6.00
- pIC50 [2]: 5.00 to 6.00

SMILES: O=C(Nc1c2c(cc3c1CCC3)CCC2)NS1(=O)=NC(=O)c2cc(F)ccc21 (stereo not drawn) [Example 26]
- pIC50 [3]: > 6.00
- pIC50 [1]: > 6.00
- pIC50 [2]: 5.00 to 6.00

SMILES: COc1ccc2c(c1)C(=O)N=S2(=O)NC(=O)Nc1c2c(cc3c1CCC3)CCC2 (stereo not drawn) [Example 22]
- pIC50 [1]: > 6.00
- pIC50 [2]: 5.00 to 6.00

SMILES: COc1cc(-c2ccc3c(c2NC(=O)NS2(=O)=NC(=O)c4sccc42)CCC3)ccn1 (single isomer, unassigned) [Example 52]
- pIC50 [1]: 5.00 to 6.00
- pIC50 [2]: 5.00 to 6.00

SMILES: O=C(Nc1c2c(cc3c1CCC3)CCC2)NS1(=O)=NC(=O)c2c(F)cccc21 (single isomer, unassigned) [Example 61]
- pIC50 [1]: > 6.00
- pIC50 [2]: 5.00 to 6.00

SMILES: O=C(Nc1c2c(cc3c1CCC3)CCC2)NS1(=O)=NC(=O)c2cc(Br)ccc21 (single isomer, unassigned) [Example 58]
- pIC50 [1]: > 6.00
- pIC50 [2]: 5.00 to 6.00

SMILES: COc1cc(-c2cc(F)cc(C(C)C)c2NC(=O)NS2(=O)=NC(=O)c3sccc32)ccn1 (stereo not drawn) [Example 17]
- pIC50 [1]: > 6.00
- pIC50 [2]: > 6.00

SMILES: O=C(N=S1(=O)NC(=O)c2ccc(Br)cc21)Nc1c2c(cc3c1CCC3)CCC2 (stereo not drawn) [Example 24]
- pIC50 [3]: 5.00 to 6.00
- pIC50 [1]: > 6.00
- pIC50 [2]: 5.00 to 6.00

SMILES: O=C(Nc1c2c(cc3c1CCC3)CCC2)NS1(=O)=NC(=O)c2sccc21 (single isomer, unassigned) [Example 35]
- pIC50 [3]: 5.00 to 6.00
- pIC50 [1]: > 6.00
- pIC50 [2]: 5.00 to 6.00

SMILES: COc1cc(-c2cc(F)cc(C(C)C)c2NC(=O)NS2(=O)=NC(=O)c3sccc32)ccn1 (single isomer, unassigned) [Example 50]
- pIC50 [1]: 5.00 to 6.00
- pIC50 [2]: 5.00 to 6.00

SMILES: COc1ccc2c(c1)S(=O)(NC(=O)Nc1c3c(cc4c1CCC4)CCC3)=NC2=O (stereo not drawn) [Example 15]
- pIC50 [1]: > 6.00
- pIC50 [2]: > 6.00

SMILES: COc1cc(-c2cc(F)cc(C(C)C)c2NC(=O)NS2(=O)=NC(=O)c3sccc32)ccn1 (single isomer, unassigned) [Example 51]
- pIC50 [1]: > 6.00
- pIC50 [2]: > 6.00

SMILES: O=C(Nc1c2c(cc3c1CCC3)CCC2)NS1(=O)=NC(=O)c2ccc(Cl)cc21 (single isomer, unassigned) [Example 45]
- pIC50 [1]: > 6.00
- pIC50 [2]: 5.00 to 6.00

SMILES: O=C(Nc1c2c(cc3c1CCC3)CCC2)NS1(=O)=NC(=O)c2ccc(Cl)cc21 (stereo not drawn) [Example 13]
- pIC50 [1]: > 6.00
- pIC50 [2]: 5.00 to 6.00

SMILES: O=C(Nc1c2c(cc3c1CCC3)CCC2)NS1(=O)=NC(=O)c2c(F)cccc21 (stereo not drawn) [Example 25]
- pIC50 [3]: > 6.00
- pIC50 [1]: > 6.00
- pIC50 [2]: 5.00 to 6.00

SMILES: O=C(Nc1c2c(cc3c1CCC3)CCC2)NS1(=O)=NC(=O)c2ccncc21 (stereo not drawn) [Example 7]
- pIC50 [3]: 5.00 to 6.00
- pIC50 [1]: > 6.00
- pIC50 [2]: 5.00 to 6.00

SMILES: CC(C)(O)c1ccc2c(c1)S(=O)(=NC(=O)Nc1c3c(cc4c1CCC4)CCC3)NC2=O (single isomer, unassigned) [Example 40]
- pIC50 [3]: 5.00 to 6.00
- pIC50 [1]: > 6.00
- pIC50 [2]: 5.00 to 6.00

SMILES: O=C(Nc1c2c(cc3c1CCC3)CCC2)NS1(=O)=NC(=O)c2ccc(F)cc21 (single isomer, unassigned) [Example 63]
- pIC50 [3]: 5.00 to 6.00
- pIC50 [1]: > 6.00
- pIC50 [2]: 5.00 to 6.00

SMILES: O=C(Nc1c2c(cc3c1CCC3)CCC2)NS1(=O)=NC(=O)c2cc(Cl)ccc21 (stereo not drawn) [Example 12]
- pIC50 [3]: 5.00 to 6.00
- pIC50 [1]: 5.00 to 6.00
- pIC50 [2]: 5.00 to 6.00

SMILES: O=C(Nc1c2c(cc3c1CCC3)CCC2)NS1(=O)=NC(=O)c2ncccc21 (single isomer, unassigned) [Example 39]
- pIC50 [1]: 5.00 to 6.00
- pIC50 [2]: 5.00 to 6.00

SMILES: O=C(Nc1c2c(cc3c1CCC3)CCC2)NS1(=O)=NC(=O)c2ccncc21 (single isomer, unassigned) [Example 38]
- pIC50 [1]: > 6.00
- pIC50 [2]: 5.00 to 6.00

SMILES: COC(=O)c1ccc2c(c1)S(=O)(=NC(=O)Nc1c3c(cc4c1CCC4)CCC3)NC2=O (stereo not drawn) [Example 9]
- pIC50 [1]: 5.00 to 6.00
- pIC50 [2]: 5.00 to 6.00

SMILES: O=C(Nc1c2c(cc3c1CCC3)CCC2)NS1(=O)=NC(=O)c2ccc(F)cc21 (stereo not drawn) [Example 28]
- pIC50 [1]: > 6.00
- pIC50 [2]: 5.00 to 6.00

SMILES: O=C(Nc1c2c(cc3c1CCC3)CCC2)NS1(=O)=NC(=O)c2nc(Cl)ccc21 (single isomer, unassigned) [Example 64]
- pIC50 [4]: 5.00 to 6.00
- pIC50 [1]: > 6.00
- pIC50 [2]: > 6.00

SMILES: Cc1cccc2c1C(=O)N=S2(=O)NC(=O)Nc1c2c(cc3c1CCC3)CCC2 (single isomer, unassigned) [Example 47]
- pIC50 [1]: > 6.00
- pIC50 [2]: 5.00 to 6.00

SMILES: O=C(N=S1(=O)NC(=O)c2ccc(C(F)(F)F)cc21)Nc1c2c(cc3c1CCC3)CCC2 (stereo not drawn) [Example 27]
- pIC50 [1]: > 6.00
- pIC50 [2]: 5.00 to 6.00

SMILES: O=C(Nc1c2c(cc3c1CCC3)CCC2)NS1(=O)=NC(=O)c2c(Cl)cccc21 (single isomer, unassigned) [Example 43]
- pIC50 [1]: > 6.00
- pIC50 [2]: 5.00 to 6.00

SMILES: O=C(N=S1(=O)NC(=O)c2cccnc21)Nc1c2c(cc3c1CCC3)CCC2 (single isomer, unassigned) [Example 32]
- pIC50 [1]: > 6.00
- pIC50 [2]: 5.00 to 6.00

SMILES: O=C(Nc1c2c(cc3c1CCC3)CCC2)NS1(=O)=NC(=O)c2ncccc21 (stereo not drawn) [Example 8]
- pIC50 [1]: 5.00 to 6.00
- pIC50 [2]: 5.00 to 6.00

SMILES: COc1cc(-c2ccc3c(c2NC(=O)NS2(=O)=NC(=O)c4sccc42)CCC3)ccn1 (single isomer, unassigned) [Example 53]
- pIC50 [1]: > 6.00
- pIC50 [2]: > 6.00

SMILES: CC(C)c1ccc2c(c1NC(=O)NS1(=O)=NC(=O)c3sccc31)CCO2 (single isomer, unassigned) [Example 49]
- pIC50 [1]: > 6.00
- pIC50 [2]: 5.00 to 6.00

SMILES: O=C(Nc1c(Br)ccc2c1CCO2)NS1(=O)=NC(=O)c2sccc21 (single isomer, unassigned) [Example 56]
- pIC50 [1]: 5.00 to 6.00
- pIC50 [2]: 4.52 to 5.00

SMILES: O=C(Nc1c2c(cc3c1CCC3)CCC2)NS1(=O)=NC(=O)c2cc(Cl)ccc21 (single isomer, unassigned) [Example 44]
- pIC50 [1]: > 6.00
- pIC50 [2]: 5.00 to 6.00

SMILES: O=C(Nc1cc2c(c3c1CCC3)CCC2)NS1(=O)=NC(=O)c2ccccc21 (stereo not drawn) [Example 6]
- pIC50 [3]: 5.00 to 6.00
- pIC50 [1]: 5.00 to 6.00
- pIC50 [2]: 5.00 to 6.00

SMILES: Cc1cccc2c1C(=O)N=S2(=O)NC(=O)Nc1c2c(cc3c1CCC3)CCC2 (single isomer, unassigned) [Example 46]
- pIC50 [1]: > 6.00
- pIC50 [2]: 5.00 to 6.00

SMILES: O=C(N=S1(=O)NC(=O)c2cccnc21)Nc1c2c(cc3c1CCC3)CCC2 (stereo not drawn) [Example 2]
- pIC50 [3]: 5.00 to 6.00
- pIC50 [1]: > 6.00
- pIC50 [2]: 5.00 to 6.00

SMILES: O=C(Nc1c2c(cc3c1CCC3)CCC2)NS1(=O)=NC(=O)c2ccccc2C1 (single isomer, unassigned) [Example 33]
- pIC50 [1]: > 6.00
- pIC50 [2]: 5.00 to 6.00
